Values joined by “and” are separate entries in the source; they are usually repeats but may differ in a detail not shown here. Identical values can stand only once. Counter-ions that a name gives are not always drawn. Like-named read-outs stand apart in the source and are kept apart here.
Experiments:
[1] = Differential scanning calorimetry of DPPC unilamellar vesicles mixed with test compound (screening assay for toxic membrane interactions)
[2] = tested on: mouse macrophage cell line; settings: cited from earlier work; for Log EC50: logarithm of EC50 in uM, matches the EC50 values of Weaver et al. (2010)
[3] = choline salt of the named anion
[4] = choline salt 10 mM, DPPC vesicle assay, Table 2
[5] = 10 mM compound, DPPC liposomes, HEPES buffer pH 7.40
[6] = 10 mM compound, DPPC liposomes, HEPES buffer pH 7.40, scan 20 to 50° C., equilibrium scans
[7] = 10 mM compound, DPPC liposomes, HEPES buffer pH 7.40, NR = not resolvable
[8] = 10 mM compound, compared to DPPC control scan from same LUV batch solution
[9] = cellular toxicity, values reproduced from Weaver et al. (2010)
[10] = 10 mM compound, initial heating scan

| Compound | ΔΔ H [1, 4] | ΔΔ T(1/2) [1, 4] [C] | Effect on DPPC main gel-liquid crystal phase transition (in words) ([1]; 10 mM compound) | Main Transition ΔH [1, 5] [kcal/mol] | Main Transition ΔT(1/2) [1, 5] [°C] | Main Transition Tm [1, 6] | Pretransition ΔH [1, 7] [kcal/mol] | Change in Main Transition ΔTm [1, 8] | Change in Main Transition ΔΔH [1, 8] | Change in Main Transition ΔΔT(1/2) [1, 8] | Change in Pretransition ΔH [1, 8] [%] | EC50 [2, 9] | Δ Tm [1, 4] | also measured |
| --- | --- | --- | --- | --- | --- | --- | --- | --- | --- | --- | --- | --- | --- | --- |
| choline formate | −733 cal/mole/ C | −0.02 | – | – | – | – | – | – | – | – | – | – | – | Effect on DPPC main gel-liquid crystal phase transition (in words) [1]: a moderate increase in Tm and a moderate decrease in enthalpy; Δ Tm [1]: +0.31 C |
| 2-hydroxyethyl(trimethyl)azanium dibutyl phosphate [CDBP] | – | – | no statistically significant effect | 7.831 | 1.50 | 41.05 °C | 0.44 | −0.5% | +2% | −6% | −20 | 9 mM and 9.1 mM | – | – |
| CC(=O)CCC(=O)O [Levulinate] | −2155 cal/mole/ C | 0.39 | a moderate decrease in Tm, and a large decrease in enthalpy | – | – | – | – | – | – | – | – | – | −0.21 C | – |
| [Cl-].[Na+] [NaCl, sodium chloride, reference compound] | – | – | – | – | – | – | – | – | – | – | – | – | – | Change in Main Transition ΔTm [1]: +0.8%; Change in Main Transition ΔΔH [1]: +17%; Change in Main Transition ΔΔT(1/2) [1]: −4%; Change in Pretransition ΔH [1]: +103%; Main Transition Tm ([1]; pH 7.4): 41.72 °C; Main Transition ΔH ([1]; pH 7.4): 9.823 kcal/mol; Main Transition ΔT(1/2) ([1]; pH 7.4): 1.53 °C; Pretransition ΔH ([1]; pH 7.4): 0.508 kcal/mol; EC50 [2]: 63 mM and 60 mM |
| CNCCC=C1c2ccccc2CCc2ccccc21 [Nortriptyline hydrochloride, nortriptyline hydrochloride, reference compound] | – | – | shifted to lower temperatures, with notable main peak broadening | 8.078 | 1.41 | 30.66 °C | – | −26% | +8% | +6% | −100 | – | – | – |
| choline lactate | −480 cal/mole/ C | −0.06 | a moderate increase in Tm and a moderate decrease in enthalpy | – | – | – | – | – | – | – | – | – | +0.37 C | Log Pow [3]: −1.73 |
| 2-hydroxyethyl(trimethyl)azanium bis(2-ethylhexyl)phosphate [CBEH] | – | – | – | 0.077 | 2.95 | 42.49 °C | 0.066 | +2.5% | −99% | +16% | −82 | < 0.3 mM | – | Main transition temperature [1, 10]: ~41 °C; Pretransition temperature [1, 10]: ~33 °C; Reduction in main transition enthalpy compared to DPPC in HEPES alone [1, 10]: 99%; Reduction in pretransition enthalpy compared to DPPC in HEPES alone [1, 10]: 82%; Third prominent peak (subtransition) temperature [1, 10]: 27 °C; New peak Tm ([1]; DPPC-CBEH dispersions run starting at 10° C., first heating scan): 21 °C |
| C[N+](C)(C)CCO.O=P([O-])(O)O [CDHP, 2-hydroxyethyl(trimethyl)azanium dihydrogen phosphate] | −76 cal/mole/ C | 0.131 | no statistically significant effect | 7.949 | 1.33 | 41.69 °C | 0.248 | +0.7% | +3% | −6% | −54 | 20 mM | +0.52 C | Log Pow [3]: −3.15; Log EC50 [2]: 4.31 uM |
| CC(C)Cc1ccc(C(C)C(=O)[O-])cc1.[Na+] (stereo not drawn) [Ibuprofen sodium salt, ibuprofen sodium salt, reference compound] | – | – | – | 7.222 | 1.79 | 38.82 °C | 0.375 | −6% | −11% | +12% | −13 | – | – | – |
| 2-hydroxyethyl(trimethyl)azanium bis(2,4,4-trimethylpentyl)phosphinate [CTMP] | −2011 cal/mole/ C | −0.37 | large decrease in Tm and enthalpy, and increased cooperativity | 3.58 | 1.48 | 32.6 °C and 33 °C and 32.58 °C | – | −21% | −52% | −17% | −100 | < 0.25 mM | −8.08 C | Decrease of peak width (ΔΔT1/2) compared to control lipid vesicles ([1]; 10 mM compound): 17%; Reduction of main transition Tm compared to DPPC alone ([1]; 10 mM compound): 21%; Reduction of transition enthalpy (in words) ([1]; 10 mM compound, compared to control lipid vesicles): half; Pretransition peak of DPPC (in words) ([1]; 10 mM compound, peak normally at approximately 34° C.): below resolvable limits; Log Pow [3]: 3.60; Log EC50 [2]: 2.39 uM |
| choline tartarate | +121.9 cal/mole/ C | −0.03 | – | – | – | – | – | – | – | – | – | – | – | Δ Tm [1]: +0.35 C |
| C[N+](C)(C)CCO.[Cl-] [CCL, choline chloride, reference compound] | – | – | – | – | – | – | – | – | – | – | – | – | – | Change in Main Transition ΔTm [1]: +0.8%; Change in Main Transition ΔΔH [1]: +15%; Change in Main Transition ΔΔT(1/2) [1]: −3%; Change in Pretransition ΔH [1]: +51%; Main Transition Tm ([1]; pH 7.4): 41.70 °C; Main Transition ΔH ([1]; pH 7.4): 9.633 kcal/mol; Main Transition ΔT(1/2) ([1]; pH 7.4): 1.55 °C; Pretransition ΔH ([1]; pH 7.4): 0.378 kcal/mol; EC50 [2]: 34 mM |

Reference: patent US20130089912A1, “METHODS AND COMPOSITIONS FOR THE STABILIZATION OF BIOLOGIC MATERIAL” (priority 2011, published 2013)
